# Source: Sander's compilation of Henry's law constants (doi:10.1016/j.chemosphere.2021.129858)
# Assay: Henry solubility constant Hcp at 298.15 K (mol/(m3 Pa))
# Settings: reference: Schwardt et al. (2021)
row,SMILES,Henry solubility constant Hcp
1,CCc1ccccc1 [ethylbenzene],0.0013
2,C=CCl [chloroethene],0.00039
3,ClC=C(Cl)Cl [trichloroethene],0.001
4,"Cc1ccc(C)cc1 [1,4-dimethylbenzene]",0.001
5,ClC(Cl)=C(Cl)Cl [tetrachloroethene],0.00058
6,Clc1ccccc1 [chlorobenzene],0.002
7,"ClCC(Cl)(Cl)Cl [1,1,1,2-tetrachloroethane]",0.0045
8,"ClCC(Cl)Cl [1,1,2-trichloroethane]",0.0073
9,"C=C(Cl)Cl [1,1-dichloroethene]",0.0004
